From patent publication US20130072470A1 (ABBVIE INC., priority 2011, published 2013)
pIC50: −log10 of the molar value.

target: T1, Jak3 enzyme (aa 811-1103) (Homo sapiens, UniProt P52333); assay: In vitro Jak3 kinase activity measured by time-resolved fluorescence resonance energy transfer (trFRET); format: biochemical; settings: ATP 0.001 mM
T1 construct: Jak3 enzyme (aa 811-1103); expressed in SF9 cells as a GST fusion; GST; made in house; host or cells: SF9 insect cells
Summary of the method: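 GST-tagged Jak3 (aa 811-1103, Sf9-expressed; 3 nM) with 2 μM biotin-peptide substrate and 1 μM ATP in MOPSO pH 6.5 with Mg2+/Mn2+, about 60 min at rt. EDTA-quenched; Eu anti-phosphotyrosine/streptavidin-APC trFRET read at 665 nm; IC50 from signal in linear range.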

T1 sequence (P52333 811-1103): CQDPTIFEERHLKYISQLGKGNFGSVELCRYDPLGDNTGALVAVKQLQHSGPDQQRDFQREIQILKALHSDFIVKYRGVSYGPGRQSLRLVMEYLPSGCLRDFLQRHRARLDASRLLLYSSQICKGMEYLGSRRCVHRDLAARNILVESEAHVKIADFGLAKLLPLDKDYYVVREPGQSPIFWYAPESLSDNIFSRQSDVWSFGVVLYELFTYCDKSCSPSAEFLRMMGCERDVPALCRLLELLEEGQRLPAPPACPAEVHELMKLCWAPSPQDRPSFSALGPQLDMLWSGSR

C[C@@H]1CN(C(=O)N2CCOCC2)C[C@@H]1c1cnc2cnc3[nH]ccc3n12 [Example #20, ((3R,4S)-3-(3H-imidazo[1,2-a]pyrrolo[2,3-e]pyrazin-8-yl)-4-methylpyrrolidin-1-yl)(morpholino)methanone] was tested. Which pIC50 did it give?
The pIC50 was under 5.00.

How did the pIC50 turn out when C[C@@H]1CN(C(=O)NCC(F)(F)F)C[C@@H]1c1cnc2cnc3[nH]ccc3n12 [Example #18, (3S,4R)-3-methyl-4-(3H-imidazo[1,2-a]pyrrolo[2,3-e]pyrazin-8-yl)-N-(2,2,2-trifluoroethyl)pyrrolidine-1-carboxamide] was run?
The pIC50 was under 5.00.

C[C@@H]1C[C@H](NCc2cnc(C(F)(F)F)nc2)C[C@@H]1c1cnc2cnc3[nH]ccc3n12 [Example #4, (1S,3S,4R)-3-(3H-imidazo[1,2-a]pyrrolo[2,3-e]pyrazin-8-yl)-4-methyl-N-((2-(trifluoromethyl)pyrimidin-5-yl)methyl)cyclopentylamine] was tested. Which pIC50 did it give?
The pIC50 was under 5.00.

same assay, conditions: ATP 0.001 mM, Table B

How did the pIC50 turn out when CC[C@@H]1C[C@H](NC(=O)c2ncoc2C)C[C@@H]1c1nnc2cnc3[nH]ccc3n12 [compound 42, N-((1S,3R,4S)-3-ethyl-4-(6H-pyrrolo[2,3-e][1,2,4]triazolo[4,3-a]pyrazin-1-yl)cyclopentyl)-5-methyloxazole-4-carboxamide] was run?
The pIC50 was 5.00 to 6.00.

With CC[C@@H]1C[C@H](NC(=O)c2noc3c2CC(C)CC3)C[C@@H]1c1nnc2cnc3[nH]ccc3n12 (stereo partly drawn) [compound 29, N-((1S,3R,4S)-3-ethyl-4-(6H-pyrrolo[2,3-e][1,2,4]triazolo[4,3-a]pyrazin-1-yl)cyclopentyl)-5-methyl-4,5,6,7-tetrahydrobenzo[d]isoxazole-3-carboxamide] as the compound, how does the pIC50 read?
The pIC50 was 5.00 to 6.00.

CC[C@@H]1C[C@H](NC(=O)CCc2nc(C)no2)C[C@@H]1c1nnc2cnc3[nH]ccc3n12 [compound 37, N-((1S,3R,4S)-3-ethyl-4-(6H-pyrrolo[2,3-e][1,2,4]triazolo[4,3-a]pyrazin-1-yl)cyclopentyl)-3-(3-methyl-1,2,4-oxadiazol-5-yl)propanamide] was tested. Which pIC50 did it give?
The pIC50 was 5.00 to 6.00.
